# Test results: US4526889A, “Epimeric azahomoerythromycin A derivative, intermediates and method of use” (Pfizer Inc., priority 1984, dated 1985)
# Where two headings read alike, the source gives them in different places.
# Legend:
# [1] = tested on: erythromycin A susceptible organisms and Hemophilus influenzae; assay: spectrum of antibacterial activity; type: cell-based
# Text: (§1) Generally twelve 2 fold dilutions of the test compound are employed, with initial concentration of the test drug being in the range of 50 to 200 mcg./ml. The susceptibility (MIC) of the test organism is accepted as the lowest concentration of compound capable of producing complete inhibition of growth as judged by the naked eye. A comparison of the activity of 4"-epi-9-deoxo-9a-methyl-9a-aza-9a-homoerythromycin A (IV) with that of an erythromycin A control is shown in replicate in the Table I.
# [2] = tested on: Ent. cloac. 009; assay: MIC in brain heart infusion (BHI) broth; type: cell-based
# Text: as §1
# [3] = tested on: Staph. aur. 052; assay: MIC in brain heart infusion (BHI) broth; type: cell-based
# Text: as §1
# [4] = tested on: Strep. faec. 006; assay: MIC in brain heart infusion (BHI) broth; type: cell-based
# Text: as §1
# [5] = tested on: Strep. pneumo. 012; assay: MIC in brain heart infusion (BHI) broth; type: cell-based
# Text: as §1
# [6] = tested on: Serr. mar. 017; assay: MIC in brain heart infusion (BHI) broth; type: cell-based
# Text: as §1
# [7] = tested on: E. Coli 470; assay: MIC in brain heart infusion (BHI) broth; type: cell-based; details: Escherichia coli, BHI broth, read-out: MIC
# Text: as §1
# [8] = tested on: Kleb. pn. 009; assay: MIC in brain heart infusion (BHI) broth; type: cell-based
# Text: as §1
# [9] = tested on: Neiss. sic. 000; assay: MIC in brain heart infusion (BHI) broth; type: cell-based
# Text: as §1
# [10] = tested on: Staph. epi 111; assay: MIC in brain heart infusion (BHI) broth; type: cell-based
# Text: as §1
# [11] = tested on: Prov. strua. 013; assay: MIC in brain heart infusion (BHI) broth; type: cell-based
# Text: as §1
# [12] = tested on: Ent. aerog. 040; assay: MIC in brain heart infusion (BHI) broth; type: cell-based
# Text: as §1
# [13] = tested on: Past. mult. 001; assay: MIC in brain heart infusion (BHI) broth; type: cell-based; details: BHI broth, read-out: MIC
# Text: as §1
# [14] = tested on: Kleb. oxy. 024; assay: MIC in brain heart infusion (BHI) broth; type: cell-based
# Text: as §1
# [15] = tested on: Kleb. pn. 031; assay: MIC in brain heart infusion (BHI) broth; type: cell-based
# Text: as §1
# [16] = tested on: Staph. aur. 400; assay: MIC in brain heart infusion (BHI) broth; type: cell-based
# Text: as §1
# [17] = tested on: E. Coli 125; assay: MIC in brain heart infusion (BHI) broth; type: cell-based; details: Escherichia coli
# Text: as §1
# [18] = tested on: Strep. pyog. 203; assay: MIC in brain heart infusion (BHI) broth; type: cell-based
# Text: as §1
# [19] = tested on: E. Coli 129; assay: MIC in brain heart infusion (BHI) broth; type: cell-based; details: Escherichia coli
# Text: as §1
# [20] = tested on: Staph. aur. 005; assay: MIC in brain heart infusion (BHI) broth; type: cell-based
# Text: as §1
# [21] = tested on: E. Coli 266; assay: MIC in brain heart infusion (BHI) broth; type: cell-based; details: Escherichia coli
# Text: as §1
# [22] = tested on: H. influ. 081; assay: MIC in brain heart infusion (BHI) broth; type: cell-based, Hemophilus influenzae; details: Haemophilus influenzae
# Text: as §1
# [23] = tested on: H. influ. 012; assay: MIC in brain heart infusion (BHI) broth; type: cell-based, Hemophilus influenzae; details: Haemophilus influenzae
# Text: as §1
# [24] = tested on: H. influ. 051; assay: MIC in brain heart infusion (BHI) broth; type: cell-based, Hemophilus influenzae; details: Haemophilus influenzae
# Text: as §1
# [25] = tested on: H. influ. 042; assay: MIC in brain heart infusion (BHI) broth; type: cell-based, Hemophilus influenzae; details: Haemophilus influenzae
# Text: as §1
# [26] = tested on: H. influ. 078; assay: MIC in brain heart infusion (BHI) broth; type: cell-based, Hemophilus influenzae; details: Haemophilus influenzae
# Text: as §1
# [27] = tested on: H. influ. 073; assay: MIC in brain heart infusion (BHI) broth; type: cell-based, Hemophilus influenzae; details: Haemophilus influenzae
# Text: as §1
# [28] = tested on: H. influ. 038; assay: MIC in brain heart infusion (BHI) broth; type: cell-based, Hemophilus influenzae; details: Haemophilus influenzae
# Text: as §1
# [29] = tested on: H. influ. 036; assay: MIC in brain heart infusion (BHI) broth; type: cell-based, Hemophilus influenzae; details: Haemophilus influenzae
# Text: as §1
# [30] = microbiological (bioassay) determination of serum levels in rats
# Experimental: Additionally, compound (IV) is tested in vivo by the well-known mouse protection test, or by a microbiological (bioassay) determination of serum levels in a variety of mammals (e.g., mouse, rat, dog).
# [31] = oral absorption and half-life in vivo
# [32] = 24 h, Day 1, BHI broth, read-out: MIC
# [33] = 48 h, Day 2, BHI broth, read-out: MIC
compound,measurement,setting,value
"CC[C@H]1OC(=O)[C@H](C)[C@@H](O[C@H]2C[C@@](C)(OC)[C@H](O)[C@H](C)O2)[C@H](C)[C@@H](O[C@@H]2O[C@H](C)C[C@H](N(C)C)[C@H]2O)[C@](C)(O)C[C@@H](C)CN(C)[C@H](C)[C@@H](O)[C@]1(C)O [Compound (IV), 4""-epi-9-deoxo-9a-methyl-9a-aza-9a-homoerythromycin A]",spectrum of antibacterial activity,[1],"relatively broad spectrum of antibacterial activity which includes erythromycin A susceptible organisms and, in addition, fully incorporates the major respiratory pathogen Hemophilus influenzae"
same,MIC,"[2]; 24 h, Day 1",25 µg/mL
same,MIC,"[2]; 48 h, Day 2",25 µg/mL
same,MIC,[3]; [32],0.2 µg/mL
same,MIC,[3]; 48 h,0.39 µg/mL
same,MIC,[4]; 24 h,1.56 µg/mL
same,MIC,[4]; [33],0.78 µg/mL
same,MIC,"[5]; 24 h, Day 1",0.025 µg/mL
same,MIC,"[5]; 48 h, Day 2",0.025 µg/mL
same,MIC,"[6]; 24 h, Day 1",50 µg/mL
same,MIC,"[6]; 48 h, Day 2",50 µg/mL
same,MIC,"[7]; 24 h, Day 1",0.78 µg/mL
same,MIC,"[7]; 48 h, Day 2",0.78 µg/mL
same,MIC,"[8]; 24 h, Day 1",12.5 µg/mL
same,MIC,"[8]; 48 h, Day 2",12.5 µg/mL
same,MIC,[9]; [32],0.2 µg/mL
same,MIC,[9]; 48 h,0.39 µg/mL
same,MIC,"[10]; 24 h, Day 1",0.1 µg/mL
same,MIC,"[10]; 48 h, Day 2",0.2 µg/mL
same,MIC,"[11]; 24 h, Day 1",50 µg/mL
same,MIC,"[11]; 48 h, Day 2",50 µg/mL
same,MIC,"[12]; 24 h, Day 1",12.5 µg/mL
same,MIC,"[12]; 48 h, Day 2",12.5 µg/mL
same,MIC,"[13]; 24 h, Day 1",0.1 µg/mL
same,MIC,"[13]; 48 h, Day 2",0.1 µg/mL
same,MIC,"[14]; 24 h, Day 1",12.5 µg/mL
same,MIC,"[14]; 48 h, Day 2",12.5 µg/mL
same,MIC,"[15]; 24 h, Day 1",12.5 µg/mL
same,MIC,"[15]; 48 h, Day 2",12.5 µg/mL
same,MIC,[16]; 24 h,3.12 µg/mL
same,MIC,[16]; [33],12.5 µg/mL
same,MIC,[17]; 24 h,6.25 µg/mL
same,MIC,[17]; 48 h,6.25 µg/mL
same,MIC,"[18]; 24 h, Day 1",0.025 µg/mL
same,MIC,"[18]; 48 h, Day 2",0.025 µg/mL
same,MIC,[19]; 24 h,1.56 µg/mL
same,MIC,[19]; 48 h,6.25 µg/mL
same,MIC,[20]; [32],0.2 µg/mL
same,MIC,[20]; 48 h,0.39 µg/mL
same,MIC,[21]; 24 h,3.12 µg/mL
same,MIC,[21]; 48 h,6.25 µg/mL
same,MIC,[22]; 24 h,0.39 µg/mL
same,MIC,[22]; [33],0.78 µg/mL
same,MIC,"[23]; 24 h, Day 1",0.39 µg/mL
same,MIC,"[23]; 48 h, Day 2",0.39 µg/mL
same,MIC,[24]; 24 h,0.39 µg/mL
same,MIC,[24]; [33],0.78 µg/mL
same,MIC,"[25]; 24 h, Day 1",0.39 µg/mL
same,MIC,"[25]; 48 h, Day 2",0.39 µg/mL
same,MIC,"[26]; 24 h, Day 1",0.39 µg/mL
same,MIC,"[26]; 48 h, Day 2",0.39 µg/mL
same,MIC,[27]; 24 h,0.39 µg/mL
same,MIC,[27]; [33],0.78 µg/mL
same,MIC,[28]; 24 h,0.39 µg/mL
same,MIC,[28]; [33],0.78 µg/mL
same,MIC,"[29]; 24 h, Day 1",0.39 µg/mL
same,MIC,"[29]; 48 h, Day 2",0.39 µg/mL
same,absorption after oral dosage,[30],exceptionally well absorbed
same,serum levels,[30]; oral,exceptionally high and long lasting serum levels
same,half-life in vivo,[31]; in vivo,extraordinarily long half-life in vivo
same,oral absorption,[31]; oral,high oral absorption
